Laboratory results: PMC4987650, “Structural Investigation of Park’s Nucleotide on Bacterial Translocase MraY: Discovery of Unexpected MraY Inhibitors” (Scientific Reports, 2016)

What was measured:
Assay type in all cases: biochemical
[1] = biological target: T1, MraYBS F228A mutant (Bacillus subtilis, UniProt Q03521, F228A); assay: Fluorescent enhancement assay, mutant MraY; settings: 6 as the substrate
T1 construct: MBP; made in house
Description: (§1) Site–directed mutagenesis of MraY. Site-directed mutagenesis of the B. subtilis MBP-tagged MraY enzyme was performed directly on the pMAL -BS-MraY-16 expression plasmid by using the “Quickchanged XL Site-Directed Mutagenesis Kit ’’ from stratagene and the oligonucleotides shown below. Mutations introduced in the mraY gene sequence were checked by DNA sequencing. […]
(§2) MraY-T51A-R 5’-[…]-3’
(§3) T53A MraY-T53A-F 5’-[…]-3’
(§4) MraY-T53A-R 5’-[…]-3’
(§5) K102A MraY-K102A-F 5’-[…]-3’
(§6) MraY-K102A-R 5’-[…]-3’
(§7) K226A Mray-K226A-F 5’-[…]-3’ […]
(§8) F228A MraY-F228A-F 5’-[…]-3’
(§9) MraY-F228A-R 5’-[…]-3’
(§10) Q271A Mray-Q271A-F 5’-[…]-3’
(§11) Mray-Q271A-R 5’-[…]-3’
(§12) R281A MraY-R281A-F 5’-[…]-3’
(§13) MraY-R281A-R 5’-[…]-3’
(§14) W297A MraY-W297A-F 5’-[…]-3’
(§15) MraY-W297A-R 5’-[…]-3’
(§16) Determine kinetic parameters by MraY fluorescence enhancement assay. The fluorescence enhancement assay was performed in 384-well plate as described by Bugg et al. with slight modifications.5 The reaction mixture containing MraYBS (10 μg/mL), C55P (200 μM) in 30 μL reaction buffer (30 mM Tris, 10 mM MgCl2, 10 mM NaCl, 0.1 mM Tween-20, 2.5% DMSO, pH 8.0) were pre-incubated at 37 °C for 15 min. The reactions were initiated by the addition of various concentrations of NBD-Park’s nucleotide 6 (0 to 160 μM). For inhibition study, a various concentrations of inhibitors were added before the addition of substrate 6. The continuous fluorescence increase over 60 min was monitored with λex 466 nm/λem 535 nm by fluorescence microplate reader (SpectraMax M5, Molecular Devices, LLC) at 37 °C. Linear regressions of increased fluorescent units (FLU) versus time (min) were used to calculate the initial velocities for each reaction. The kinetic parameters values (Ki, KM, and Vmax) were obtained by nonlinear regression analysis using the […] equation with the GraphPad Prism program (GraphPad Software, San
(§17) (1 picture or pasted object on this page, not shown here)

[2] = biological target: T2, MraYBS T53A mutant (Bacillus subtilis, UniProt Q03521, T53A); assay: Fluorescent enhancement assay, mutant MraY; settings: 6 as the substrate
T2 construct: MBP; made in house
Description: as §1, §2, §3, §4, §5, §6, §7, §8, §9, §10, §11, §12, §13, §14, §15, §16, §17

[3] = biological target: T3, MraYBS K102A mutant (Bacillus subtilis, UniProt Q03521, K102A); assay: Fluorescent enhancement assay, mutant MraY; settings: 6 as the substrate
T3 construct: MBP; made in house
Description: as §1, §2, §3, §4, §5, §6, §7, §8, §9, §10, §11, §12, §13, §14, §15, §16, §17

[4] = biological target: T4, MraYBS T51A mutant (Bacillus subtilis, UniProt Q03521, T51A); assay: Fluorescent enhancement assay, mutant MraY; settings: 6 as the substrate
T4 construct: MBP; made in house
Description: as §1, §2, §3, §4, §5, §6, §7, §8, §9, §10, §11, §12, §13, §14, §15, §16, §17

[5] = biological target: T5, MraYBS R281A mutant (Bacillus subtilis, UniProt Q03521, R281A); assay: Fluorescent enhancement assay, mutant MraY; settings: 6 as the substrate
T5 construct: MBP; made in house
Description: as §1, §2, §3, §4, §5, §6, §7, §8, §9, §10, §11, §12, §13, §14, §15, §16, §17

[6] = biological target: T6, MraYBS W297A mutant (Bacillus subtilis, UniProt Q03521, W297A); assay: Fluorescent enhancement assay, mutant MraY; settings: 6 as the substrate
T6 construct: MBP; made in house
Description: as §1, §2, §3, §4, §5, §6, §7, §8, §9, §10, §11, §12, §13, §14, §15, §16, §17

[7] = biological target: T7, MraYBS K226A mutant (Bacillus subtilis, UniProt Q03521, K226A); assay: Fluorescent enhancement assay, mutant MraY; settings: 6 as the substrate
T7 construct: MBP; made in house
Description: as §1, §2, §3, §4, §5, §6, §7, §8, §9, §10, §11, §12, §13, §14, §15, §16, §17

[8] = biological target: T8, MraYBS Q271A mutant (Bacillus subtilis, UniProt Q03521, Q271A); assay: Fluorescent enhancement assay, mutant MraY; settings: 6 as the substrate
T8 construct: MBP; made in house
Description: as §1, §2, §3, §4, §5, §6, §7, §8, §9, §10, §11, §12, §13, §14, §15, §16, §17

[9] = biological target: T3, MraYBS K102A mutant; assay: HPLC-based MraY functional assay, mutant MraY; settings: consumption of 6 in one-hour reaction
Description: (§18) The purified MraY from Bacillus subtilis was prepared as described in our previous reports. For 5 and 7–10, the reaction mixture containing MraYBS (10 μg/mL), C55P (200 μM) in 40 μL reaction buffer (30 mM Tris, 10 mM MgCl2, 10 mM NaCl, 0.1 mM Tween-20, 2.5% DMSO, pH 8.0) were pre-incubated at 37 °C for 15 min. The reactions were initiated by the addition of Park’s nucleotide analogues (10 μM) and incubated at 37 °C for 1 h. The reaction mixtures were added by uridine (0.01 mg/mL) as the internal standard and heated to 100 °C to stop the transferring reaction. The samples were analyzed by RP-C18 HPLC with gradient elution of 0.25 M NH4HCO3(aq)/15% MeOH in water (100:0 to 0:100) at a flow rate of 1 mL/min over 45 min, and the peaks of substrates were monitored at UV 260 nm. […] The reaction mixtures were heated to 100 °C to stop the transferring reaction, and samples were analyzed by an anion-exchange column (SAX1, Supelco Co., 5 μm, 4.6 × 250 mm) with a linear gradient elution of NH4OAc (20 mM to 1 M in MeOH) at a flow rate of 1.0 mL/min over 30 min. The fluorescent substrates were monitored with λex 466 nm/λem 535 nm by fluorescence detector. […]

[10] = biological target: T9, MraYBS (Bacillus subtilis, UniProt Q03521); assay: MraY fluorescence enhancement assay (kinetics, inhibition); settings: WT MraYBS, 6 as the substrate
T9 construct: MBP; made in house
T9 sequence (Q03521 1-324): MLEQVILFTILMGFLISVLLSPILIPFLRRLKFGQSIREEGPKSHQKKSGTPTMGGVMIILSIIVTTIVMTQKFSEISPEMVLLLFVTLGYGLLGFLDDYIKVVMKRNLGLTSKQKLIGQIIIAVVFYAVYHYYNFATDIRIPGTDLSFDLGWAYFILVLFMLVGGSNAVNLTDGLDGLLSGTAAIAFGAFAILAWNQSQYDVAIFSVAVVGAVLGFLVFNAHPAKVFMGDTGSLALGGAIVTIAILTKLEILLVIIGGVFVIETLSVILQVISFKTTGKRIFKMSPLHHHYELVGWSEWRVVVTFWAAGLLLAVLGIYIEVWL
Description: as §16

[11] = biological target: T5, MraYBS R281A mutant; assay: HPLC-based MraY functional assay, mutant MraY; settings: consumption of 6 in one-hour reaction
Description: as §18

[12] = biological target: T4, MraYBS T51A mutant; assay: HPLC-based MraY functional assay, mutant MraY; settings: consumption of 6 in one-hour reaction
Description: as §18

CC(=O)N[C@H]1[C@@H](OP(=O)(O)OP(=O)(O)OC[C@H]2O[C@@H](n3ccc(=O)[nH]c3=O)[C@H](O)[C@@H]2O)O[C@H](CO)[C@@H](O)[C@@H]1O[C@H](C)C(=O)N[C@@H](C)C(=O)N[C@H](CCC(=O)N[C@@H](CCCCNC(=O)CCCCCNc1ccc([N+](=O)[O-])c2nonc12)C(=O)N[C@H](C)C(=O)N[C@H](C)C(=O)O)C(=O)O [Compound 6, NBD-Park’s nucleotide]
Vmax [1]: 10 ± 1.5 FLU/min | Vmax [2]: 7 ± 0.8 FLU/min | Vmax [3]: 5 ± 0.2 FLU/min | Vmax [4]: 5 ± 0.2 FLU/min | Vmax [5]: 10 ± 1.4 FLU/min | Vmax [6]: 4 ± 0.4 FLU/min | Vmax [7]: 23 ± 4.7 FLU/min | Vmax [8]: 6 ± 1.7 FLU/min | Relative activity [9]: 33% | Vmax [10]: 18 ± 0.8 FLU/min | Relative activity [11]: 81% | Relative activity [12]: 60%
